Measured values as given in the NIST ThermoML archive (doi:10.1016/j.jct.2006.05.006).

Test: xn = mol fraction of the nth substance listed
Settings: 101 kPa, Liquid

CN1CCCC1=O [N-methylpyrrolidone] + Cc1ccccc1
Settings | mass density [kg/m3]
293.15 K, x2 = 0 | 1032.66
293.15 K, x2 = 0.0541 | 1024.34
293.15 K, x2 = 0.1254 | 1013.29
293.15 K, x2 = 0.1845 | 1004.06
293.15 K, x2 = 0.2412 | 995.15
293.15 K, x2 = 0.3154 | 983.34
293.15 K, x2 = 0.3845 | 972.23
293.15 K, x2 = 0.4521 | 961.22
293.15 K, x2 = 0.5214 | 949.8
293.15 K, x2 = 0.5865 | 938.94
293.15 K, x2 = 0.6458 | 928.94
293.15 K, x2 = 0.7124 | 917.57
293.15 K, x2 = 0.7784 | 906.16
293.15 K, x2 = 0.8425 | 894.94
293.15 K, x2 = 0.9014 | 884.51
293.15 K, x2 = 0.9784 | 870.71
303.15 K, x2 = 0 | 1023.42
303.15 K, x2 = 0.0482 | 1016
303.15 K, x2 = 0.1235 | 1004.32
303.15 K, x2 = 0.1856 | 994.6
303.15 K, x2 = 0.2436 | 985.45
303.15 K, x2 = 0.3145 | 974.17
303.15 K, x2 = 0.3854 | 962.74
303.15 K, x2 = 0.4521 | 951.88
303.15 K, x2 = 0.5236 | 940.09
303.15 K, x2 = 0.5852 | 929.81
303.15 K, x2 = 0.6451 | 919.71
303.15 K, x2 = 0.7145 | 907.86
303.15 K, x2 = 0.7854 | 895.61
303.15 K, x2 = 0.8541 | 883.57
303.15 K, x2 = 0.9015 | 875.19
303.15 K, x2 = 0.9789 | 861.34
313.15 K, x2 = 0 | 1014.27
313.15 K, x2 = 0.0522 | 1006.21
313.15 K, x2 = 0.1257 | 994.77
313.15 K, x2 = 0.1901 | 984.67
313.15 K, x2 = 0.2401 | 976.76
313.15 K, x2 = 0.321 | 963.85
313.15 K, x2 = 0.3952 | 951.86
313.15 K, x2 = 0.4654 | 940.38
313.15 K, x2 = 0.5321 | 929.35
313.15 K, x2 = 0.5984 | 918.25
313.15 K, x2 = 0.6541 | 908.84
313.15 K, x2 = 0.7248 | 896.74
313.15 K, x2 = 0.7895 | 885.54
313.15 K, x2 = 0.8412 | 876.51
313.15 K, x2 = 0.9215 | 862.31
313.15 K, x2 = 0.9759 | 852.57
323.15 K, x2 = 0 | 1005.62
323.15 K, x2 = 0.0487 | 998.04
323.15 K, x2 = 0.1147 | 987.71
323.15 K, x2 = 0.1789 | 977.59
323.15 K, x2 = 0.2365 | 968.43
323.15 K, x2 = 0.2987 | 958.46
323.15 K, x2 = 0.3695 | 947
323.15 K, x2 = 0.4351 | 936.27
323.15 K, x2 = 0.4954 | 926.31
323.15 K, x2 = 0.5654 | 914.62
323.15 K, x2 = 0.6215 | 905.15
323.15 K, x2 = 0.6945 | 892.69
323.15 K, x2 = 0.7658 | 880.39
323.15 K, x2 = 0.8321 | 868.8
323.15 K, x2 = 0.9201 | 853.23
323.15 K, x2 = 0.9758 | 843.26
333.15 K, x2 = 0 | 996.28
333.15 K, x2 = 0.0478 | 988.83
333.15 K, x2 = 0.1102 | 979.04
333.15 K, x2 = 0.1874 | 966.85
333.15 K, x2 = 0.2451 | 957.65
333.15 K, x2 = 0.3147 | 946.45
333.15 K, x2 = 0.3984 | 932.84
333.15 K, x2 = 0.4682 | 921.37
333.15 K, x2 = 0.5321 | 910.74
333.15 K, x2 = 0.5984 | 899.6
333.15 K, x2 = 0.6541 | 890.15
333.15 K, x2 = 0.7241 | 878.16
333.15 K, x2 = 0.7985 | 865.26
333.15 K, x2 = 0.8541 | 855.52
333.15 K, x2 = 0.921 | 843.69
333.15 K, x2 = 0.98 | 833.15
343.15 K, x2 = 0 | 987.39
343.15 K, x2 = 0.0512 | 979.36
343.15 K, x2 = 0.1245 | 967.81
343.15 K, x2 = 0.1895 | 957.47
343.15 K, x2 = 0.246 | 948.41
343.15 K, x2 = 0.3124 | 937.69
343.15 K, x2 = 0.3841 | 926
343.15 K, x2 = 0.4514 | 914.91
343.15 K, x2 = 0.5214 | 903.26
343.15 K, x2 = 0.5954 | 890.81
343.15 K, x2 = 0.6598 | 879.85
343.15 K, x2 = 0.7214 | 869.28
343.15 K, x2 = 0.7954 | 856.43
343.15 K, x2 = 0.8596 | 845.17
343.15 K, x2 = 0.9214 | 834.23
343.15 K, x2 = 0.9788 | 823.98
353.15 K, x2 = 0 | 978.62
353.15 K, x2 = 0.0821 | 965.64
353.15 K, x2 = 0.1337 | 957.42
353.15 K, x2 = 0.1993 | 946.92
353.15 K, x2 = 0.2646 | 936.37
353.15 K, x2 = 0.3306 | 925.62
353.15 K, x2 = 0.3965 | 914.8
353.15 K, x2 = 0.4514 | 905.7
353.15 K, x2 = 0.5214 | 894
353.15 K, x2 = 0.5984 | 880.99
353.15 K, x2 = 0.6514 | 871.96
353.15 K, x2 = 0.7214 | 859.91
353.15 K, x2 = 0.7984 | 846.52
353.15 K, x2 = 0.858 | 836.05
353.15 K, x2 = 0.9265 | 823.91
353.15 K, x2 = 0.9799 | 814.38
